Assay [1] deals with bioavailable intracellular iron. The assay is described as follows: IRE-controlled luciferase reporter in 293T cells. It is filed as cell-based, human. Particulars: 12 hr. As for the experimental part:
293T cells (10^5 cells/well of 12-well microplates) were seeded and transfected 20 hr later with a firefly luciferase (Luc)-expressing reporter plasmid and corresponding Renilla luciferase (Ren)-expressing reference plasmid using TransFectin™ (Bio-Rad, Hercules, Calif.). The bioavailable intracellular iron concentration was monitored using plasmids obtained from B. Galy and M. W. Hentze (EMBL, Heidelberg). Plasmid pcFIF-Luc contains the mouse ferritin H 5′-UTR with an iron response element (IRE) controlling Luc; pcFIRo-Ren is a similar construct expressing a mutated non-functional IRE fused to Ren. The activity of the HIV-1 promoter was monitored using the pNL4-3-Luc E molecular clone (Chen et al. (1994) J Virol 68: 654-660.), based on the recombinant infectious proviral clone that contains DNA from HIV isolates NY5 (5′ half) and IIIB (3′ half). This plasmid, obtained from D. Baltimore (Caltech, Pasadena), contains the Luc gene in place of 102 nucleotides from nef and 6 nucleotides from env. pCMV-Ren (Promega, Madison, Wis.) was used as reference for pNL4-3-Luc E. Compounds were added at the time of transfection. Cells were harvested 12 hr later, washed with phosphate-buffered saline, and lysed for the dual luciferase assay (Dual Luciferase™ Reporter Assay System; Promega, Madison, Wis.). Luc data were normalized to the Ren internal controls (Hogue et al. (2009) Retrovirology 6: 90.).
Both CPX and DEF are hydroxypyridinones with vicinally positioned oxygen atoms that mediate bidentate interaction with metal ions, in particular Fe^3+ (FIG. 11A). To evaluate the effect of drugs on the intracellular iron pool and on HIV-1 gene expression, transient expression assays in human 293T cells were exploited. Bioavailable intracellular iron was measured using a construct in which an iron-responsive element (IRE) controls luciferase expression, and HIV-specific transcription was assayed in parallel using an HIV-1 molecular clone that expresses luciferase reporter under the direction of the retroviral promoter. CPX and DEF were compared with the medicinal chelator deferoxamine (DFOX) and with the CPX fragment Agent P2, which consists of the metal-binding 1,2-HOPO domain of CPX but lacks the cyclohexyl moiety (FIG. 11A).
In general terms: In a reporter assay the amount or activity of a reporter protein is the signal.

The subject of assay [2] is HIV-1. The assay is described as follows: Acute PBMC infection model: p24 and HIV-1 RNA in supernatant. It is filed as cell-based. As to conditions: for p24 in culture (virus production, p24 capture assay): HIV-infected PBMCs co-cultured with uninfected PBMCs, CPX 30 μM, DEF 250 μM, P2 30 μM added at 48 hr, followed to 144 hr; for HIV-1 RNA production / p24 production: isolate #990,135, compound added at 48 hr, 30 or 60 μM. On the procedure: Using an institutional review board (IRB)-approved protocol, PBMCs were isolated from the blood of healthy donors and stimulated overnight with phytohemagglutinin (PHA) and human IL-2. Stimulated cells were pelleted and resuspended for culture at a final concentration of 0.5×10^6 cells/ml in PHA-free RPMI 1640 medium containing 10% fetal calf serum (v/v), 100 units/ml penicillin G, 100 μg/ml streptomycin, 2 mM […], and 3.5 ng/ml human IL-2 (Medium B). Cultures were incubated at 37° C., 5% CO2, and 95% humidity.
Using an IRB-approved protocol, two donors were recruited to generate clinical viral isolates. One (#990,135) was highly immunocompromised despite on-going combination antiretroviral therapy (cART) (CD4 count <5%; HIV RNA in plasma at log10 5.5 copies/ml). The second (#990,010) was moderately to severely immunocompromised on cART (CD4 count 14-26%; HIV RNA in plasma at log10 3.8-5.0 copies/ml). For infection, 5×10^6 uninfected stimulated PBMCs were co-cultured with 10×10^6 PBMCs from one of the HIV-infected donors in Medium B. On day 3, half of the supernatant was removed and replenished with an equal volume of fresh Medium B. On day 7, the medium was likewise replenished and 7.5×10^6 stimulated uninfected PBMCs were added. On days 10, 17, and 24, half of the supernatant was replenished. On days 14, 21, and 28, stimulated uninfected PBMCs were added. Cells were harvested when p24 reached 250 pg/ml, cryopreserved in freezing medium (90% fetal calf serum, 10% dimethyl sulfoxide), and stored in liquid nitrogen as infected PBMC stock. Cell-free supernatants were stored at −80° C.
Uninfected PBMCs were co-incubated with infected PBMC stock in 24-well microplates at 2 ml/well Medium B, at a 10:1 ratio of uninfected-to-infected cells, and a total cell number of 1×10^6. Cultures were maintained and assayed for 6 consecutive days. […] Leaving the cell layer undisturbed, half the medium in each well was replenished every day, with concurrent adjustment of compound concentration. On each day during the 6-day experiments, a set of wells was harvested: the cells were processed for determination of viability and apoptosis, and the cell-free supernatants were stored at −80° C. for p24 and viral RNA measurements. Experiments were performed at least in duplicate and repeated at least twice.
p24 core antigen in the supernatant was quantified by ELISA (Retrotek HIV-1 p24™; ZeptoMetrix Corp.; Buffalo, N.Y.). HIV-1 RNA copy number in the supernatant was determined with a PCR-based and FDA-approved assay (Amplicor HIV-1 Monitor™; Roche Diagnostics Corp.; Indianapolis, Ind.). IFN-γ and IL-10 in the supernatant were determined by cytometric bead array (Human Th1/Th2 Cytokine Kit II™; BD Biosciences Pharmingen, San Jose, Calif.).
To examine the effect of CPX and DEF on HIV-1 propagation, uninfected PBMCs from healthy donors were co-cultured with HIV-infected PBMCs and virus production was monitored by the p24 capture assay. In untreated cultures, p24 was first detected at 96 hr and increased up to 144 hr (FIG. 1C; Control). […] The profound inhibition is due, at least in part, to activation of apoptosis at later stages of infection. These concentrations are within the clinically relevant range and sufficient to block DOHH activity and eIF5A modification (see below).
To examine the antiretroviral action of CPX in a clinic-derived model, PBMCs infected with patient isolates of HIV-1 were used. Naïve freshly isolated PBMCs from a single donor were infected by co-cultivation with HIV-infected, HLA-nonidentical PBMCs at an initial uninfected/infected cell ratio of 10:1. CPX was added and cells were maintained and monitored for six days. Half of each culture supernatant was replenished daily with CPX-containing or CPX-free medium as appropriate. […]

Setting [3] is: isolate #990,010, CPX 30 μM added 12 hr after inoculation, six days.

SMILES strings stand for the structures.

Regarding `Cc1cc(C2CCCCC2)n(O)c(=O)c1` [CPX, 6-cyclohexyl-1-hydroxy-4-methylpyridin-2[1H]-one], in assay [1], the “reduction of intracellular iron (IRE-dependent luciferase)” value (“reduction of intracellular iron” below) amounted to 80%. Besides, in assay [2], the “p24 in culture (virus production, p24 capture assay)” value (“p24 in culture” for short) is reported as “reduced p24 to baseline levels”; the “HIV-1 RNA production” value is “inhibited the production of HIV-1 RNA”; the p24 production entry is “completely inhibited p24 production”. In addition, in assay [2] (setting [3]), the “HIV-1 p24” value is “remained undetectable” and the “extracellular HIV-1 RNA” value is given as “did not increase at any time over the initial infectious dose”.

Turning to `Cc1ccn(O)c(=O)c1` [Agent P2, 1-hydroxy-4-methylpyridin-2[1H]-one], in assay [1] (DFOX 15 μM), the “reduction of intracellular iron” value is “no effect on either IRE-dependent or HIV-encoded luciferase expression”. In assay [2], the “p24 in culture” value is on record as “did not impede p24 production”; the “HIV-1 RNA production” value is “did not curtail the accumulation of p24 or HIV-1 RNA”; the p24 production result is given as “did not curtail the accumulation of p24 or HIV-1 RNA”.

As for `Cc1c(O)c(=O)ccn1C` [DEF, 3-hydroxy-1,2-dimethylpyridin-4(1H)-one], the “reduction of intracellular iron” value in assay [1] is listed as approximately 60%. The “p24 in culture” value in assay [2] is “reduced p24 to baseline levels”.

The values above are taken from patent publication US20120225093A1, “Abrogating HIV-1 Infection via Drug-Induced Reactivation of Apoptosis” (UNIVERSITY OF MEDICINE AND DENTISTRY OF NEW JERSEY, priority 2010, published 2012).
